# Assay results taken from US20030180735A1, “Screening method” (priority 1999, published 2003).
# Experiments:
# [1] = tested on: HeLa cells; test: HeLa DNA fragmentation (laddering on 2% agarose gel); assay type: cell-based; details: TNFα dose range with 5 μg/ml cycloheximide, 18 h
# Method: HeLa cells are plated in full culture medium at a concentration of 5×10^5 cells/well of 24 well plate. […] Cells are cultured overnight at 37° C. before being lysed (5×10^6/treatment) in lysis buffer (1M Tris, 10 mM EDTA , 0.8% sarcosine L sulphate) and incubated on ice for 15 min before centrifugation at 12000g. Supernatant is removed and phenol/chloroform extracted. Following precipitation of DNA, pellets are resuspended in Tris/EDTA buffer (TE) containing 100 μg/ml RNAase A and incubated for 2 h @37° C. Proteinase K (100 μg/ml) is then added and sample incubated for a further 18 h before […] of DNA is separated on a 2% agarose gel.
# HeLa cells are plated into 24 well plate at a concentration of 5×10^5/well and allowed to adhere for 4 hours Culture medium is then replaced with fresh medium containing the indicated concentrations of TNFα together with 5 μg/ml cycloheximide. Cultures are maintained for a further 18 h, before isolation of DNA from 5×10^6 cells/treatment (as previously described) and running on a 2% gel.
# [2] = tested on: HeLa cells; assay type: cell-based; details: together with 5 μg/ml cycloheximide, 18 hours, crystal violet
# Method: In our system, cells are cultured in 96 well plates in 100 μl of culture medium and are treated in ways known to induce apoptosis. Following an indicated period of time, 10 μl MTT stock solution (5 mg/mi) is added to each culture being assayed and incubated at 37° C. for 4 h. At the end of the incubation period the converted dye is solubilised with acidic-isopropanol (0.04N HCL. Absorbance of converted dye is measured at a wavelength of 570 nm.
# The following example describes a method to analyse viability of adherent cells, such as HeLa, using chemical stain Crystal Violet. Adherent cells are cultured in the presence of known agents to induce/ modulate the apoptotic process. After a suitable period of time, supernatants are removed by inverting and flicking the plate. Wells are washed twice with PBS and remaining adherent cells are fixed with 100% EtOH and air-dried. To each well is added 100 μl of 1% aqueous Crystal Violet Solution (Sigma). Plates are then incubated at room temperature (RT) for 5 min before washing in tap water. Wells are solubilised in 33% acetic acid and optical density is measured at 570 nm using a plate reader.
# HeLa cells are plated in full culture medium at a concentration of 2×10^4 cells/well of 96 well plate. […] Cells are cultured overnight at 37° C. before analysing for apoptosis using either MTT or crystal violet.
# HeLa cells are plated in full culture medium at a concentration of 2×10^4 cells/well of 96 well plate. […] Cells are cultured overnight at 37° C. before analysing for apoptosis using crystal violet.
# HeLa cells are plated into 96 well plate at a concentration of 2×10^4/well and allowed to adhere for 4 hours Culture medium is then replaced with fresh medium containing the indicated concentrations of TNFα together with 5 μg/ml cycloheximide. Cultures are maintained for a further 18 hours, before measuring apoptosis with crystal violet and reading @570 nm in a plate reader.
# Cells are cultured for a further 18 h before staining the remaining adherent cells with crystal violet and measuring absorbance at 570 nm.
substance,measurement,setting,value
TNFα,DNA laddering,[1],DNA fragmentation is seen in all samples treated with TNFα
same,amount of HeLa apoptosis vs TNFα concentration,[2],dose. response
